Experimental findings from US9155719B2, “N-acetyl-DL-leucine, neuroprotective and retinoprotective medicament” (priority 2010, dated 2015) are described below.

Common to all, as to type: in vivo, human
In test [1] the test system is patients with Retinitis Pigmentosa. As to the kind of experiment: Clinical observation, retinitis pigmentosa patients. Particulars: seven patients: three 1 gr 2 times per day oral, four 2% eye drops 3 times per day. How it is done: The invention will be even further illustrated by the description of the clinical examples which follow and which, of course, are not limiting in nature. In these examples, the active ingredient, the N-acetyl-DL-leucine, was administered continuously (i.e., at least once a day) in oral or topical form, in an amount of 2 gr per day in the case of the oral form and 2% in the case of eye drops. This disorder corresponds to a dystrophy in the photoreceptors (cones and rods). It is characterized by the appearance of night blindness in infancy or adolescence, progressive contractions of the equatorial annular peripheral visual filed and results in a substantial loss in visual acuity or even blindness by adulthood. The N-acetyl-DL-leucine was used and induced an improvement of visual function: Seven patients were treated: three of them received 1 gr 2 times per day via oral administration; and four of them were subjected to a topical administration (2% eye drops), 3 times per day. All of them noticed an improvement of their visual acuity and visual field.

Test [2] has as its system patients with Starpardt's Disease. As to the kind of experiment: Clinical observation, Stargardt's disease twin patients. The following applies: eye drops; one of two twin patients. How it is done: The invention will be even further illustrated by the description of the clinical examples which follow and which, of course, are not limiting in nature. In these examples, the active ingredient, the N-acetyl-DL-leucine, was administered continuously (i.e., at least once a day) in oral or topical form, in an amount of 2 gr per day in the case of the oral form and 2% in the case of eye drops. Two twin patients treated with N-acetyl-DL-leucine in the form of eye drops noticed an improvement of their visual acuity by 1/10 for one of them, and by 2/10 to 3/10 for the […].

Test [3] has as its system patients with a macular degeneration. As to the kind of experiment: Clinical observation, age-related or myopia-related macular degeneration. The following applies: eleven patients; eye drops or tablets. How it is done:
(§1) The invention will be even further illustrated by the description of the clinical examples which follow and which, of course, are not limiting in nature. In these examples, the active ingredient, the N-acetyl-DL-leucine, was administered continuously (i.e., at least once a day) in oral or topical form, in an amount of 2 gr per day in the case of the oral form and 2% in the case of eye drops. Eleven patients with a macular degeneration which were treated with N-acetyl-DL-leucine (eye drops or tablets) noticed an improvement of their visual acuity.

For test [4], the system named is patients with known glaucoma. As to the kind of experiment: Clinical observation, glaucomatous neuropathy or glaucoma. How it is done: as §1, with “Patients” for “Eleven patients”, “with known glaucoma experienced” for “with”, “decrease in their occular tension, and” for “macular degeneration which were treated with N-acetyl-DL-leucine (eye drops or tablets) noticed”, “acuity and visual field in a very short time as soon as the treatment was administrated. […] IV) Ametropia.” for “acuity.”

The next test deals with patients with myopia. As to the kind of experiment: Clinical observation, myopia. Particulars: seven patients; eye drops. How it is done:
(§2) The invention will be even further illustrated by the description of the clinical examples which follow and which, of course, are not limiting in nature. In these examples, the active ingredient, the N-acetyl-DL-leucine, was administered continuously (i.e., at least once a day) in oral or topical form, in an amount of 2 gr per day in the case of the oral form and 2% in the case of eye drops. More particularly, but not exclusively, it relates to eyedrops composed of N-acetyl-DL-leucine, which are intended for improving (i.e., in the present case, decreasing) the effects of presbyopia, myopia, hypermetropia and astigmatism, for stabilizing them or even for reversing the evolutive course thereof. • Myopia: seven patients were evaluated and received the N-acetyl-DL-leucine in the form of eye drops. • Result: in addition to the improvement of their visual acuity, the visual field, the refractive value was reduced. One can deduce therefrom that the N-acetyl-DL-leucine not only improves vision but also treats myopia. • Presbyopia: fourteen patients received the N-acetyl-DL-leucine in the form of eye drops and experienced an improvement of their near vision and a decrease in presbyopia. […]

The subject of a further test is patients with presbyopia. As to the kind of experiment: Clinical observation, presbyopia. Particulars: fourteen patients; eye drops. How it is done:
as §2

Test [5] deals with patients with hypermetropia. As to the kind of experiment: Clinical observation, hypermetropia. Particulars: eye drops. How it is done: as §2
The subject of another test is astigmatic subjects. As to the kind of experiment: Clinical observation, astigmatism. The following applies: eye drops. How it is done: as §2
In test [6] the test system is patients with visual difficulties at night (hemeralopia). As to the kind of experiment: Clinical observation, night vision (hemeralopia). Particulars: all the patients with hemeralopia. How it is done:
The invention will be even further illustrated by the description of the clinical examples which follow and which, of course, are not limiting in nature. In these examples, the active ingredient, the N-acetyl-DL-leucine, was administered continuously (i.e., at least once a day) in oral or topical form, in an amount of 2 gr per day in the case of the oral form and 2% in the case of eye drops.

Test [7] concerns "normal" patients without ocular pathology (aging individuals). The test can be described thus: Clinical observation, age-related physiological vision decline / normal patients. Particulars: in many cases; absence of any occular pathology. How it is done: The invention will be even further illustrated by the description of the clinical examples which follow and which, of course, are not limiting in nature. In these examples, the active ingredient, the N-acetyl-DL-leucine, was administered continuously (i.e., at least once a day) in oral or topical form, in an amount of 2 gr per day in the case of the oral form and 2% in the case of eye drops. […] In many cases, N-acetyl-DL-leucine improved visual function (visual acuity, contrast vision and visual field) in the absence of any occular pathology.

As for `CC(=O)NC(CC(C)C)C(=O)O` (racemic) [N-acetyl-DL-leucine], the visual acuity entry in test [1] is reported as “improvement”; in test [3], “improvement”; in test [4] (oral route or topical route (eye drops)) it was “marked improvement”; in the test with patients with myopia, “improvement”; in the test with astigmatic subjects, “improvement”. For the same compound, the visual field entry in test [1] is given as “improvement”; in test [4] (oral route or eye drops) it was “regression of the deficiency”; in the test with patients with myopia it was “improvement”. The “improvement of visual acuity” value in test [2] is given as 1/10. Also, the occular tension entry in test [4] (in a very short time as soon as the treatment was administrated) was “decrease”. Further, the refractive value result with patients with myopia is “reduced”. Also, the near vision result in the test with patients with presbyopia was “improvement”. Besides, in the test with patients with presbyopia, the presbyopia entry is on record as “decrease”. Besides, in test [5], the “observations in hypermetropia (near vision, ametropia)” value is “the same observations as for presbyopia”. Also, the night vision entry in [6] is on record as “greatly improved”. For the same compound, the “visual function (visual acuity, contrast vision and visual field)” value in test [7] is recorded as “improved”.
